In US7348427B2, “Antipathogenic benzamide compounds” (Genesoft Pharmaceuticals, Inc., priority 2001, dated 2008):

Columns and labels:
[1] = system: Bacillus cereus (ATCC 11778); assay: MIC, NCCLS broth microdilution assay; format: cell-based; conditions: A = B. cereus ATCC 11778
In short: (§1)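 NCCLS-standard broth microdilution gives the MIC values here. The antifungal determination used a clinical microbiology manual method instead.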

[2] = system: Enterococcus faecium (ATCC 51559, a vancomycin resistant strain (VRE)); assay: MIC, NCCLS broth microdilution assay; format: cell-based; conditions: D = E. faecium ATCC 51559
In short: as §1

[3] = system: Staphylococcus aureus (ATCC 13709, a methicillin sensitive strain (MSSA)); assay: MIC, NCCLS broth microdilution assay; format: cell-based; conditions: E = S. aureus ATCC 13709
In short: as §1

[4] = system: Staphylococcus aureus (ATCC 27660, a methicillin resistant strain (MRSA)); assay: MIC, NCCLS broth microdilution assay; format: cell-based; conditions: F = S. aureus ATCC 27660
In short: as §1

[5] = system: Staphylococcus epidermidis (ATCC 12228); assay: MIC, NCCLS broth microdilution assay; format: cell-based; conditions: G = S. epidermidis ATCC 12228
In short: as §1

[6] = system: Streptococcus pneumoniae (ATCC 51422, a penicillin resistant strain (PRSP)); assay: MIC, NCCLS broth microdilution assay; format: cell-based; conditions: I = S. pneumoniae ATCC 51422
In short: as §1

[7] = system: Candida albicans (ATCC 38247); assay: Antifungal MIC assay; format: cell-based; conditions: B = C. albicans ATCC 38247
In short: as §1

E. faecalis ATCC 29212 = assay: MIC, NCCLS broth microdilution assay; format: cell-based, Enterococcus faecalis; conditions: C = E. faecalis ATCC 29212
In short: (§2)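 Broth microdilution per NCCLS M7-A4 (1997) guidelines; MIC recorded as minimal inhibitory concentration.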

S. pneumoniae ATCC 49619 = assay: MIC, NCCLS broth microdilution assay; format: cell-based, Streptococcus pneumoniae; conditions: H = S. pneumoniae ATCC 49619
In short: as §2

Row | SMILES | Minimum Inhibitory Concentration (MIC) [1] | Minimum Inhibitory Concentration (MIC) [2] | Minimum Inhibitory Concentration (MIC) [3] | Minimum Inhibitory Concentration (MIC) [4] | Minimum Inhibitory Concentration (MIC) [5] | Minimum Inhibitory Concentration (MIC) [6] | Minimum Inhibitory Concentration (MIC) [7] | Minimum Inhibitory Concentration (MIC) (E. faecalis ATCC 29212) | Minimum Inhibitory Concentration (MIC) (S. pneumoniae ATCC 49619)
1 | Cn1cc(NC(=O)c2cc(NC(=O)c3ccc(F)cc3F)cn2C)cc1C(=O)NCCN1CCSCC1 [Compound B-11] | +++ (+++ = MIC ≦ 4) | +++ (+++ = MIC ≦ 4) | +++ (+++ = MIC ≦ 4) | +++ (+++ = MIC ≦ 4) | +++ (+++ = MIC ≦ 4) | +++ (+++ = MIC ≦ 4) | >32 µg/mL | +++ (+++ = MIC ≦ 4) | +++ (+++ = MIC ≦ 4)
2 | Cn1cc(NC(=O)c2cc(NC(=O)c3ccc(Cl)cc3F)c[nH]2)cc1C(=O)Nc1cc(C(=O)NCCN2CCCCC2)n(CCN2CCOCC2)c1 [Compound D-13] | +++ (+++ = MIC ≦ 4) | ++ (++ = 4 < MIC < 12) | +++ (+++ = MIC ≦ 4) | +++ (+++ = MIC ≦ 4) | +++ (+++ = MIC ≦ 4) | +++ (+++ = MIC ≦ 4) | + (+ = 12 ≦ MIC ≦ 32) | +++ (+++ = MIC ≦ 4) | +++ (+++ = MIC ≦ 4)
3 | Cc1cc(NC(=O)c2cc(NC(=O)c3cc(NC(=O)c4ccc(Cl)cc4F)cn3C)cn2CCN2CCOCC2)sn1 [Compound D-8] | +++ (+++ = MIC ≦ 4) | +++ (+++ = MIC ≦ 4) | +++ (+++ = MIC ≦ 4) | +++ (+++ = MIC ≦ 4) | +++ (+++ = MIC ≦ 4) | +++ (+++ = MIC ≦ 4) | >32 µg/mL | +++ (+++ = MIC ≦ 4) | +++ (+++ = MIC ≦ 4)
4 | Cn1cc(NC(=O)c2cc(NC(=O)c3cc(NC(=O)c4ccccc4F)cn3C)cn2C)cc1C(=O)NCCN1CCSCC1 [Compound B-41] | +++ (+++ = MIC ≦ 4) | +++ (+++ = MIC ≦ 4) | +++ (+++ = MIC ≦ 4) | +++ (+++ = MIC ≦ 4) | +++ (+++ = MIC ≦ 4) | +++ (+++ = MIC ≦ 4) | >32 µg/mL | +++ (+++ = MIC ≦ 4) | +++ (+++ = MIC ≦ 4)
5 | Cn1cc(NC(=O)c2cc(NC(=O)c3cc(NC(=O)c4ccc(F)cc4F)cn3C)cn2C)cc1C(=O)NCCN1CCOCC1 [Compound B-1] | +++ (+++ = MIC ≦ 4) | +++ (+++ = MIC ≦ 4) | +++ (+++ = MIC ≦ 4) | +++ (+++ = MIC ≦ 4) | +++ (+++ = MIC ≦ 4) | +++ (+++ = MIC ≦ 4) | >32 µg/mL | +++ (+++ = MIC ≦ 4) | +++ (+++ = MIC ≦ 4)
6 | Cn1cc(NC(=O)c2cc(NC(=O)c3ccc(Cl)cc3F)c[nH]2)cc1C(=O)NCCN1CCCCC1 [Compound A-18] | +++ (+++ = MIC ≦ 4) | +++ (+++ = MIC ≦ 4) | +++ (+++ = MIC ≦ 4) | +++ (+++ = MIC ≦ 4) | +++ (+++ = MIC ≦ 4) | +++ (+++ = MIC ≦ 4) | >32 µg/mL | +++ (+++ = MIC ≦ 4) | +++ (+++ = MIC ≦ 4)
7 | Cn1cc(NC(=O)c2cc(NC(=O)c3cc(NC(=O)c4ccc(F)cc4F)c[nH]3)cn2C)cc1C(=O)NCCN1CCC(F)(F)CC1 [Compound A-12] | +++ (+++ = MIC ≦ 4) | +++ (+++ = MIC ≦ 4) | +++ (+++ = MIC ≦ 4) | + (+ = 12 ≦ MIC ≦ 32) | +++ (+++ = MIC ≦ 4) | +++ (+++ = MIC ≦ 4) | >32 µg/mL | +++ (+++ = MIC ≦ 4) | +++ (+++ = MIC ≦ 4)
8 | Cc1cc(NC(=O)c2cc(NC(=O)c3cc(NC(=O)c4ccc(Cl)cc4F)cn3C)cn2CCCN(C)C)sn1 [Compound D-12] | +++ (+++ = MIC ≦ 4) | ++ (++ = 4 < MIC < 12) | +++ (+++ = MIC ≦ 4) | +++ (+++ = MIC ≦ 4) | +++ (+++ = MIC ≦ 4) | +++ (+++ = MIC ≦ 4) | +++ (+++ = MIC ≦ 4) | +++ (+++ = MIC ≦ 4) | +++ (+++ = MIC ≦ 4)
9 | Cn1cc(NC(=O)c2cc(NC(=O)c3ccc(Cl)cc3F)c[nH]2)cc1C(=O)NCCN1CCSCC1 [Compound A-21] | +++ (+++ = MIC ≦ 4) | +++ (+++ = MIC ≦ 4) | +++ (+++ = MIC ≦ 4) | +++ (+++ = MIC ≦ 4) | +++ (+++ = MIC ≦ 4) | +++ (+++ = MIC ≦ 4) | >32 µg/mL | +++ (+++ = MIC ≦ 4) | +++ (+++ = MIC ≦ 4)
10 | Cn1cc(NC(=O)c2cc(NC(=O)c3cc(NC(=O)c4ccc(F)cc4F)cn3C)cn2C)cc1C(=O)NCCc1ccncc1 [Compound B-22] | +++ (+++ = MIC ≦ 4) | +++ (+++ = MIC ≦ 4) | +++ (+++ = MIC ≦ 4) | +++ (+++ = MIC ≦ 4) | +++ (+++ = MIC ≦ 4) | +++ (+++ = MIC ≦ 4) | >32 µg/mL | +++ (+++ = MIC ≦ 4) | +++ (+++ = MIC ≦ 4)
11 | Cn1cc(NC(=O)c2cc(NC(=O)c3cc(NC(=O)c4ccc(C#N)cc4)cn3C)cn2C)cc1C(=O)NCCN1CCSCC1 [Compound B-68] | +++ (+++ = MIC ≦ 4) | +++ (+++ = MIC ≦ 4) | +++ (+++ = MIC ≦ 4) | +++ (+++ = MIC ≦ 4) | +++ (+++ = MIC ≦ 4) | +++ (+++ = MIC ≦ 4) | >32 µg/mL | +++ (+++ = MIC ≦ 4) | +++ (+++ = MIC ≦ 4)
12 | CN(C)CCCn1cc(NC(=O)c2cc(NC(=O)c3cc(NC(=O)c4ccc(F)cc4F)cn3C)cn2C)cc1C(=O)NCCN1CCCCC1 [Compound D-2] | +++ (+++ = MIC ≦ 4) | +++ (+++ = MIC ≦ 4) | + (+ = 12 ≦ MIC ≦ 32) | +++ (+++ = MIC ≦ 4) | +++ (+++ = MIC ≦ 4) | +++ (+++ = MIC ≦ 4) | + (+ = 12 ≦ MIC ≦ 32) | +++ (+++ = MIC ≦ 4) | +++ (+++ = MIC ≦ 4)
13 | Cn1cc(NC(=O)c2cc(NC(=O)c3cc(NC(=O)c4ccc(Cl)cc4)cn3C)cn2C)cc1C(=O)NCCN1CCSCC1 [Compound B-58] | +++ (+++ = MIC ≦ 4) | + (+ = 12 ≦ MIC ≦ 32) | +++ (+++ = MIC ≦ 4) | +++ (+++ = MIC ≦ 4) | ++ (++ = 4 < MIC < 12) | +++ (+++ = MIC ≦ 4) | >32 µg/mL | +++ (+++ = MIC ≦ 4) | +++ (+++ = MIC ≦ 4)
14 | Cn1cc(NC(=O)c2cc(NC(=O)c3ccc(Cl)cc3F)c[nH]2)cc1C(=O)Nc1cc(C(=O)NCCN2CCCCC2)n(CCCO)c1 [Compound C-9] | +++ (+++ = MIC ≦ 4) | +++ (+++ = MIC ≦ 4) | +++ (+++ = MIC ≦ 4) | +++ (+++ = MIC ≦ 4) | +++ (+++ = MIC ≦ 4) | +++ (+++ = MIC ≦ 4) | +++ (+++ = MIC ≦ 4) | +++ (+++ = MIC ≦ 4) | +++ (+++ = MIC ≦ 4)
